Experimental data published in PubChem BioAssay AID2060503 (Molecular Pharmacology Branch, DTP, NCI, 2025).
pIC50: −log10 of the molar value.

Tested on: 817829-284-R-J1-PDC complex spheroids, viability
Experiment: Anticancer human tumor 817829-284-R-J1-PDC patient-derived colon adenocarcinoma cell line growth inhibition [GQUAD]
Conditions: for pIC50: curve of first compound; for viability, T/C: stronger effect = lower value; active means viability on the fitted dose curve at most 10% of control; inactive means the rest
Method in brief: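 Tumor cells were grown as complex spheroids with HUVEC endothelial cells and mesenchymal stem cells as stroma. G-quadruplex stabilizers were combined with targeted agents over half-log dilutions from near the clinical Cmax, or from 10 microM.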

[1] = second compound 0.0316 µM, first compound 0.0316 µM
[2] = second compound 0.0316 µM, first compound 0.1 µM
[3] = second compound 0.0316 µM, first compound 0.316 µM
[4] = second compound 0.0316 µM, first compound 1 µM
[5] = second compound 0.0316 µM, first compound 3.16 µM
[6] = second compound 0.0316 µM, first compound 10 µM
[7] = second compound 0.1 µM, first compound 0.0316 µM
[8] = second compound 0.1 µM, first compound 0.1 µM
[9] = second compound 0.1 µM, first compound 0.316 µM
[10] = second compound 0.1 µM, first compound 1 µM
[11] = second compound 0.1 µM, first compound 3.16 µM
[12] = second compound 0.1 µM, first compound 10 µM
[13] = second compound 0.316 µM, first compound 0.0316 µM
[14] = second compound 0.316 µM, first compound 0.1 µM
[15] = second compound 0.316 µM, first compound 0.316 µM
[16] = second compound 0.316 µM, first compound 1 µM
[17] = second compound 0.316 µM, first compound 3.16 µM
[18] = second compound 0.316 µM, first compound 10 µM
[19] = second compound 1 µM, first compound 0.0316 µM
[20] = second compound 1 µM, first compound 0.1 µM
[21] = second compound 1 µM, first compound 0.316 µM
[22] = second compound 1 µM, first compound 1 µM
[23] = second compound 1 µM, first compound 3.16 µM
[24] = second compound 1 µM, first compound 10 µM
[25] = second compound 3.16 µM, first compound 0.0316 µM
[26] = second compound 3.16 µM, first compound 0.1 µM
[27] = second compound 3.16 µM, first compound 0.316 µM
[28] = second compound 3.16 µM, first compound 1 µM
[29] = second compound 3.16 µM, first compound 3.16 µM
[30] = second compound 3.16 µM, first compound 10 µM
[31] = second compound 10 µM, first compound 0.0316 µM
[32] = second compound 10 µM, first compound 0.1 µM
[33] = second compound 10 µM, first compound 0.316 µM
[34] = second compound 10 µM, first compound 1 µM
[35] = second compound 10 µM, first compound 3.16 µM
[36] = second compound 10 µM, first compound 10 µM
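Further: spheroids exposed to agents for 7 days before readout.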
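Wherever viability, T/C is given: percent viability relative to DMSO vehicle control taken as 100%.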

C=CC(=O)N1CCN(c2nc(=O)n(-c3c(C)ccnc3C(C)C)c3nc(-c4c(O)cccc4F)c(F)cc23)C(C)C1 (stereo not drawn) + CN(C)c1ccc(Nc2c3ccc(NC(=O)CCN4CCCC4)cc3nc3cc(NC(=O)CCN4CCCC4)ccc23)cc1
5.14: pIC50 (second compound 10 µM)
< 5.00: pIC50 (second compound 0.0316 µM) | pIC50 (second compound 0.1 µM) | pIC50 (second compound 0.316 µM) | pIC50 (second compound 1 µM) | pIC50 (second compound 3.16 µM)
inactive: viability, T/C [1] 101% | viability, T/C [2] 103% | viability, T/C [3] 97.5% | viability, T/C [4] 99.4% | viability, T/C [5] 83.7% | viability, T/C [6] 80% | viability, T/C [7] 99.7% | viability, T/C [8] 103% | viability, T/C [9] 104% | viability, T/C [10] 98.7% | viability, T/C [11] 106% | viability, T/C [12] 85.4% | viability, T/C [13] 91.3% | viability, T/C [14] 107% | viability, T/C [15] 89.6% | viability, T/C [16] 108% | viability, T/C [17] 86.3% | viability, T/C [18] 76.2% | viability, T/C [19] 96.2% | viability, T/C [20] 107% | viability, T/C [21] 92.3% | viability, T/C [22] 105% | viability, T/C [23] 92.2% | viability, T/C [24] 72.1% | viability, T/C [25] 95.6% | viability, T/C [26] 97.5% | viability, T/C [27] 98.8% | viability, T/C [28] 92.3% | viability, T/C [29] 92.3% | viability, T/C [30] 69.3% | viability, T/C [31] 101% | viability, T/C [32] 105% | viability, T/C [33] 92.7% | viability, T/C [34] 92.3% | viability, T/C [35] 84.3% | viability, T/C [36] 36.4%

Nc1ccn(C2OC(CO)C(O)C2(F)F)c(=O)n1 (stereo not drawn) + Cc1[nH]c2ccc(F)cc2c1-c1nc2c3cccnc3c3ncccc3c2[nH]1
active: viability, T/C [2] 6.9% | viability, T/C [3] 6.88% | viability, T/C [4] 6.74% | viability, T/C [5] 5.53% | viability, T/C [6] 3.68% | viability, T/C [8] 8.53% | viability, T/C [9] 7.09% | viability, T/C [10] 6.66% | viability, T/C [11] 4.94% | viability, T/C [12] 3.89% | viability, T/C [14] 9.71% | viability, T/C [15] 6.14% | viability, T/C [16] 6.13% | viability, T/C [17] 6.19% | viability, T/C [18] 3.54% | viability, T/C [20] 8.09% | viability, T/C [21] 5.47% | viability, T/C [22] 5.85% | viability, T/C [23] 5.57% | viability, T/C [24] 3.28% | viability, T/C [26] 7.63% | viability, T/C [27] 3.35% | viability, T/C [28] 3.87% | viability, T/C [29] 3.33% | viability, T/C [30] 2.74% | viability, T/C [31] 7.76% | viability, T/C [32] 3.83% | viability, T/C [33] 2.59% | viability, T/C [34] 2.55% | viability, T/C [35] 2.74% | viability, T/C [36] 2.11%
> 7.50: pIC50 (second compound 0.0316 µM) | pIC50 (second compound 0.1 µM) | pIC50 (second compound 0.316 µM) | pIC50 (second compound 1 µM) | pIC50 (second compound 3.16 µM) | pIC50 (second compound 10 µM)
inactive: viability, T/C [1] 20.2% | viability, T/C [7] 14.1% | viability, T/C [13] 13.8% | viability, T/C [19] 20.8% | viability, T/C [25] 12.7%

CCc1c2c(nc3ccc(O)cc13)-c1cc3c(c(=O)n1C2)COC(=O)[C@]3(O)CC + Cc1cnc(CNC(=O)c2c(=O)c3ccc(N4CCCN(C)CC4)nc3n3c2sc2ccccc23)cn1
> 9.00: pIC50 (second compound 0.0316 µM) | pIC50 (second compound 0.1 µM) | pIC50 (second compound 0.316 µM) | pIC50 (second compound 1 µM) | pIC50 (second compound 3.16 µM) | pIC50 (second compound 10 µM)
active: viability, T/C (second compound 0.0316 µM, first compound 0.0999 µM) 8.12% | viability, T/C [3] 3.77% | viability, T/C (second compound 0.1 µM, first compound 0.0999 µM) 6.99% | viability, T/C [9] 2.92% | viability, T/C (second compound 0.316 µM, first compound 0.0999 µM) 7.47% | viability, T/C [15] 2.52% | viability, T/C (second compound 1 µM, first compound 0.0999 µM) 6.88% | viability, T/C [21] 0.52% | viability, T/C [25] 10.7% | viability, T/C (second compound 3.16 µM, first compound 0.0999 µM) 3.99% | viability, T/C [27] 0.15% | viability, T/C (second compound 10 µM, first compound 0.000999 µM) 0.09% | viability, T/C (second compound 10 µM, first compound 0.00316 µM) 0.14% | viability, T/C (second compound 10 µM, first compound 0.00999 µM) 0.17% | viability, T/C [31] 0.14% | viability, T/C (second compound 10 µM, first compound 0.0999 µM) 0.16% | viability, T/C [33] 0.16%
inactive: viability, T/C (second compound 0.0316 µM, first compound 0.000999 µM) 40.3% | viability, T/C (second compound 0.0316 µM, first compound 0.00316 µM) 25.9% | viability, T/C (second compound 0.0316 µM, first compound 0.00999 µM) 28.9% | viability, T/C [1] 14.1% | viability, T/C (second compound 0.1 µM, first compound 0.000999 µM) 33.5% | viability, T/C (second compound 0.1 µM, first compound 0.00316 µM) 29.6% | viability, T/C (second compound 0.1 µM, first compound 0.00999 µM) 18.2% | viability, T/C [7] 15.5% | viability, T/C (second compound 0.316 µM, first compound 0.000999 µM) 21.6% | viability, T/C (second compound 0.316 µM, first compound 0.00316 µM) 27.2% | viability, T/C (second compound 0.316 µM, first compound 0.00999 µM) 22% | viability, T/C [13] 14.4% | viability, T/C (second compound 1 µM, first compound 0.000999 µM) 19.5% | viability, T/C (second compound 1 µM, first compound 0.00316 µM) 25.2% | viability, T/C (second compound 1 µM, first compound 0.00999 µM) 17.8% | viability, T/C [19] 13.5% | viability, T/C (second compound 3.16 µM, first compound 0.000999 µM) 20.3% | viability, T/C (second compound 3.16 µM, first compound 0.00316 µM) 17.8% | viability, T/C (second compound 3.16 µM, first compound 0.00999 µM) 15.5%

O=C(c1cc(Cc2n[nH]c(=O)c3ccccc23)ccc1F)N1CCN(C(=O)C2CC2)CC1 + CN(C)c1ccc(Nc2c3ccc(NC(=O)CCN4CCCC4)cc3nc3cc(NC(=O)CCN4CCCC4)ccc23)cc1
< 5.00: pIC50 (second compound 0.0316 µM) | pIC50 (second compound 0.1 µM) | pIC50 (second compound 0.316 µM) | pIC50 (second compound 1 µM) | pIC50 (second compound 3.16 µM) | pIC50 (second compound 10 µM)
inactive: viability, T/C [1] 108% | viability, T/C [2] 97.8% | viability, T/C [3] 102% | viability, T/C [4] 90.7% | viability, T/C [5] 78.8% | viability, T/C [6] 58.3% | viability, T/C [7] 101% | viability, T/C [8] 107% | viability, T/C [9] 108% | viability, T/C [10] 98.6% | viability, T/C [11] 100% | viability, T/C [12] 60.2% | viability, T/C [13] 102% | viability, T/C [14] 97.6% | viability, T/C [15] 107% | viability, T/C [16] 93% | viability, T/C [17] 95.2% | viability, T/C [18] 66.8% | viability, T/C [19] 107% | viability, T/C [20] 96.7% | viability, T/C [21] 99% | viability, T/C [22] 93.7% | viability, T/C [23] 93.7% | viability, T/C [24] 62.5% | viability, T/C [25] 100% | viability, T/C [26] 103% | viability, T/C [27] 94.1% | viability, T/C [28] 99.5% | viability, T/C [29] 94.9% | viability, T/C [30] 58.3% | viability, T/C [31] 97.4% | viability, T/C [32] 102% | viability, T/C [33] 94.5% | viability, T/C [34] 88.4% | viability, T/C [35] 70.7% | viability, T/C [36] 52.5%
